For 65 compounds, melting point results are on record in a melting point compilation (Tetko et al.; mined from patent text by program, amines drawn as free bases though some values may be those of a salt).

A value given as a limit tells only on which side of the number the result lay.

By melting point is commonly meant the temperature of the solid-liquid transition.

`CCOCCn1c(NC2CCN(CCC3(c4ccc(C)c(C)c4)CCN(C(=O)c4cc(OC)c(OC)c(OC)c4)C3)CC2)nc2ccccc21` (stereo not given) had a melting point of 108 to 119 °C.

Consider `OC(=S)c1c(F)cccc1-c1ccccc1`, for which the melting point fell in the range of 152 to 156 °C. As for `COc1cc(N)c(C(N)=O)cc1C(=O)N[C@H]1CCN(Cc2ccc(F)cc2)C[C@H]1OC` (relative stereo), the figure is 244 °C; as for `CCOC(=O)c1ocnc1C`, 31 to 33 °C; as for `CC(C)Nn1nnnc1S`, 92 to 95 °C. The figure for `COC(=O)c1sc2ccc(C#N)cc2c1N` is 248 °C. The figure for `CCCc1c(OCCCCCc2c(Cl)c(Cl)cc(OC)c2OC)ccc(C(=O)OC)c1O` is 113 to 115 °C; for `Cc1n[nH]c(=O)c(-c2c(F)cc(F)cc2F)c1-c1cccs1` it is 249 to 251 °C; for `CCCC1=C(C#N)C(c2ccccc2Cl)c2cn(C(=O)Nc3ccccc3)nc2N1` (stereo not given) it is 167 to 171 °C.

Compound `CC(C)NC(=S)Nc1nc2ccc(OC(F)(F)F)cc2s1` returned a melting point of 242 °C. The figure for `Cn1c(-c2n[nH]c(=O)[nH]2)nc2ccccc21` is 293 to 296 °C. As for `O=C1NC(=O)C(c2c[nH]c3cc(F)ccc23)=C1C1=COc2ccccc2O1`, the figure is 203 °C; as for `Oc1c(Cc2ccccc2)nc(Cc2ccccc2)c2c1COC2`, 204 to 205 °C. The figure for `O=C1CC(c2ccc(C3CCCCCC3)cc2)C(=O)O1` (stereo not given) is 102 to 104 °C; for `O=[N+]([O-])c1cccc(C=CC=Cc2ccccc2)c1` it is 144 °C; for `CCCCOC(=O)c1ccc(N2CCN(CCCS(=O)(=O)O)CC2)cc1` it is 232 to 234 °C. On to `COc1ccc(C2N(C(C)=O)c3ccccc3-c3c([N+](=O)[O-])cnn32)cc1` (stereo not given), for which the melting point lay in the range of 153 to 154 °C. The figure for `CC(=O)c1cc(C(C)(C)C)cc(Br)c1O` is 98 to 98.5 °C; for `CNC(=O)C(C#N)C(=O)C1CCC1` (stereo not given) it is 81 to 83 °C. For the compound `NC(=S)c1sc(N2CCCC2)nc1N`, the melting point was 264 to 265 °C. As for `NC(=O)c1cc2c(Oc3ccc(-n4ccnc4)cc3)cncc2s1`, the figure is 310 to 312 °C; as for `CSc1ccc(C2NC(C(=O)O)C(C)(C)S2)cc1` (stereo not given), 150 to 152 °C; as for `CC(=O)Nc1cccc(OCc2ccccc2)c1CCOC(C)=O`, 118 to 119 °C. The figure for `O=P(O)(O)C1CC(c2ccc(F)cc2)=NO1` (stereo not given) is 206 °C; for `COc1cc(OC)nc(Oc2ccc3c(c2C(=O)O)OCO3)n1` it is 198 to 201 °C; for `COc1ccc([C@@H]2Sc3cc(Cl)ccc3N(CCCCl)C(=O)[C@@H]2O)cc1` (relative stereo) it is 103 to 106 °C. As for `CCOC(=O)CCCc1oc(=O)[nH]c1-c1ccc(Cl)s1`, the figure is 95 to 96 °C; as for `CC(C)N=C1C(c2ccccc2)=C(c2ccccc2)C(c2ccccc2)=C1c1ccccc1`, 223 °C; as for `O=S(=O)(F)C=CNc1ccc(Cl)cc1`, 61 to 63 °C. Regarding `O=C(c1ccccc1)c1ncc2n1CCC2C(=O)O` (stereo not given), the melting point is 232 to 233 °C.

The compound `Cc1cc(NCC(=O)N(C)c2ccccc2)nc(-c2ccccc2)n1` returned a melting point of 134 to 136 °C.

For the compound `Cc1c(O)ccc(Cl)c1N`, the melting point is 143 to 144 °C. For the compound `Oc1nnc2ccccc2n1`, the melting point fell in the range of 204 to 206 °C. Consider `CCCC(=O)C(=CNc1cccc(COC(=O)c2ccccc2)c1)C(=O)OCC`, for which the melting point was 59 to 63 °C. The figure for `C=CCOc1ccccc1OCC(O)CNC1CCC(N2CCNC2=O)CC1` (stereo not given) is 154 to 155 °C; for `CC(=O)OC(C(Oc1ccc(Cl)cc1)n1cncn1)C(C)(C)CCl` (stereo not given) it is 111 to 117 °C; for `O=C1C2=CSCCN2C(=O)N1c1ccc(Cl)cc1F` it is 118 to 120 °C. As for `O=C(CNc1ccc2[nH]ncc2c1)N1CCC(Cc2ccccc2)CC1`, the figure is 42 to 47 °C; as for `CC(C)(C)C1=CC(=CC#Cc2ccc(C(=O)O)c(O)c2)C=C(C(C)(C)C)C1=O`, 203 °C; as for `Cn1c(=O)nc(Sc2ccccc2)sc1=S`, 116 to 118 °C. As for `Cc1ccc2c(c1)C(=O)CC2c1ccc(F)cc1` (stereo not given), the figure is 68 to 70 °C; as for `Cc1ccc(S(=O)(=O)NC(=O)OCCc2ccc(-n3c(-c4ccccc4)nc4c(C)nc(C)cc43)cc2)cc1`, 194 °C. The compound `COc1ccc(C2C[N+]([O-])=C3CCCCC32)cc1OC` (stereo not given) came in with a melting point of 135 to 141 °C. The figure for `Cc1nn(C)c(Cl)c1S(=O)(=O)Nc1ccc(Cl)cc1C(=O)Nc1ccc(S(=O)(=O)N2CCSCC2)cc1` is 215 to 216 °C; for `COc1cc2c(cc1OC)N(C(=O)c1ccc(-c3ccccc3C(F)(F)F)c(C)c1)Cc1cccn1C2` it is 187 to 188 °C. The figure for `O=c1[nH]c2ccccc2cc1-c1csc(-c2ccncc2)n1` is 241 to 243 °C. Take `CCc1cccc2c(C=O)cc(Cl)c(O)c12`: the melting point lay in the range of 139 to 142 °C. In the case of `CCCC(=O)Nc1ccc(C2=NNC(=O)NC2C)cc1` (stereo not given), the melting point fell in the range of 232 to 234 °C. The figure for `Cn1ccc2c3c(c(C(=O)O)cc21)C(=O)NC3=O` is 313 to 318 °C; for `CC(C)CC(O)(Cn1ccnn1)c1ccccc1` (stereo not given) it is 94 to 95 °C; for `CNc1nc(-c2cccc3ccccc23)co1` it is 164 to 166 °C. As for `Nc1ccc(C2=NN=C(c3ccccn3)N(C(=O)c3ccccc3)N2)nc1`, the figure is 223 to 225 °C; as for `O=C1NCC=Cc2cc[nH]c21`, 155 to 160 °C; as for `Cc1cc(C)c(O)c(CC(C)(C)CO)c1`, 117 °C. The figure for `CC1(C)CC(O)C(C)(C)c2cc(/C=C/c3ccc(C(=O)O)cc3)c(Cn3cccn3)cc21` (stereo not given) is 248 °C; for `COc1ccc2c(c1)OCCC(C(=O)O)=C2` it is 197 to 200 °C. On to `CC(=O)NCCCCCCOc1ccccc1C(=O)Nc1ccc(C(=O)N2CCCCc3ccccc32)cc1`, for which the melting point is 171 to 172 °C. As for `Cc1ccc(Sc2cc3c(cc2Sc2ccc(C)cc2)C(=O)c2c(c(O)c4cc(Sc5ccc(C)cc5)c(Sc5ccc(C)cc5)cc4c2O)C3=O)cc1`, the figure is more than 265 °C; as for `O=C(O)C(CCOc1ccccc1)CCOc1ccccc1`, 85 to 86 °C.

Consider `CC(C)(C)c1cc(Cn2nc(-c3ccccc3)oc2=S)cc(C(C)(C)C)c1O`, for which the melting point was 166 °C. Turning to `CC(Oc1ccc(Oc2cnc3cc(F)ccc3n2)cc1)C(=O)Nc1ccc(OC(F)(F)F)cc1` (stereo not given), the melting point lay in the range of 140 to 142 °C. `CC(C)(C)OC(=O)N1CCC(O)(CS(=O)(=O)NC(=O)c2cc(C(F)(F)F)cc(C(F)(F)F)c2)CC1` showed a melting point of 154 to 159 °C. Consider `CCc1noc(CC(O)c2ccccc2)c1C(=O)NC` (stereo not given), for which the melting point fell in the range of 135 to 137 °C.

In turn, `Cc1ccc(-c2nc3ccc(CN4CCN(C)CC4)cc3[nH]2)cc1C#Cc1ccc(NC(C)C)nn1` gave a melting point of 129 to 130 °C. As for `COC1=CC(=O)C(OC)=C(CCCCCC2=C(OC)C(=O)C(C)=C(OC)C2=O)C1=O`, the figure is 48 to 49 °C.
